Where “and” joins values, the source holds several entries; their conditions need not be identical. Equal values may be shown once.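 Five compound concentrations were applied to cells in 96-well plates for 48 hours; endpoints were derived by simple linear interpolation of the resulting dose-response curve. GI50 marks 50% less growth. TGI: concentration producing complete growth inhibition.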
Experiments:
Test in all cases: inhibition of tumour cell growth, NCI panel, 48 h
786-0 renal = system: 786-0 renal
A498 renal = system: A498 renal
A549 NSCLC = system: A549 NSCLC
ACHN renal = system: ACHN renal
BT-549 breast = system: BT-549 breast
CAKI-1 renal = system: CAKI-1 renal
CCRF-CEM leukemia = system: CCRF-CEM leukemia
COLO 205 colon = system: COLO 205 colon
DLD-1 colon = system: DLD-1 colon
DU-145 prostate = system: DU-145 prostate
EKVX NSCLC = system: EKVX NSCLC
HCC-2998 colon = system: HCC-2998 colon
HCT-116 colon = system: HCT-116 colon
HCT-15 colon = system: HCT-15 colon
HL-60(TB) leukemia = system: HL-60(TB) leukemia
HOP-18 NSCLC = system: HOP-18 NSCLC
HOP-62 NSCLC = system: HOP-62 NSCLC
HOP-92 NSCLC = system: HOP-92 NSCLC
HS 578T breast = system: HS 578T breast
HT29 colon = system: HT29 colon
IGROV1 ovarian = system: IGROV1 ovarian
K-562 leukemia = system: K-562 leukemia
KM12 colon = system: KM12 colon
KM20L2 colon = system: KM20L2 colon
LOX IMVI melanoma = system: LOX IMVI melanoma
LXFL 529 NSCLC = system: LXFL 529 NSCLC
M14 melanoma = system: M14 melanoma
M19-MEL melanoma = system: M19-MEL melanoma
MALME-3M melanoma = system: MALME-3M melanoma
MCF7 breast = system: MCF7 breast
MDA-MB-231 breast = system: MDA-MB-231 breast
MDA-MB-435 = system: MDA-MB-435
MDA-N = system: MDA-N
MOLT-4 leukemia = system: MOLT-4 leukemia
NCI-H226 lung = system: NCI-H226 lung
NCI-H23 lung = system: NCI-H23 lung
NCI-H460 lung = system: NCI-H460 lung
NCI-H522 lung = system: NCI-H522 lung
NCI/ADR-RES ovarian = system: NCI/ADR-RES ovarian
OVCAR-3 ovarian = system: OVCAR-3 ovarian
OVCAR-4 ovarian = system: OVCAR-4 ovarian
OVCAR-5 ovarian = system: OVCAR-5 ovarian
OVCAR-8 ovarian = system: OVCAR-8 ovarian
PC-3 prostate = system: PC-3 prostate
RPMI-8226 leukemia = system: RPMI-8226 leukemia
RXF 393 renal = system: RXF 393 renal
SF-268 CNS = system: SF-268 CNS
SF-295 CNS = system: SF-295 CNS
SF-539 CNS = system: SF-539 CNS
SK-MEL-2 melanoma = system: SK-MEL-2 melanoma
SK-MEL-28 melanoma = system: SK-MEL-28 melanoma
SK-MEL-5 melanoma = system: SK-MEL-5 melanoma
SK-OV-3 ovarian = system: SK-OV-3 ovarian
SN12C renal = system: SN12C renal
SNB-19 CNS = system: SNB-19 CNS
SNB-75 CNS = system: SNB-75 CNS
SNB-78 CNS = system: SNB-78 CNS
SR leukemia = system: SR leukemia
SW-620 colon = system: SW-620 colon
T-47D breast = system: T-47D breast
TK-10 renal = system: TK-10 renal
U251 CNS = system: U251 CNS
UACC-257 melanoma = system: UACC-257 melanoma
UACC-62 melanoma = system: UACC-62 melanoma
UO-31 renal = system: UO-31 renal
XF 498 CNS = system: XF 498 CNS
DMS 114 small cell lung = system: DMS 114 small cell lung
DMS 273 small cell lung = system: DMS 273 small cell lung
RXF-631 renal = system: RXF-631 renal

## CCc1nc(N)nc(N)c1-c1ccc(Cl)c(N=[N+]=[N-])c1
786-0 renal
  TGI: > 77.8 µM and 45.2 µM
A498 renal
  TGI: 60.7 µM and 72.6 µM
A549 NSCLC
  GI50: 0.58 µM and 1.68 µM
  TGI: > 100 µM
ACHN renal
  GI50: 2.33 µM and 4.75 µM
  TGI: > 100 µM
BT-549 breast
  GI50: 6.14 µM and 15.2 µM
  TGI: 48.8 µM and 77.7 µM
CAKI-1 renal
  GI50: 19.3 µM and 7.29 µM
  TGI: 99.5 µM and > 96.4 µM
CCRF-CEM leukemia
  GI50: 0.898 µM and 3.89 µM
  TGI: 31.9 µM and > 71.9 µM
COLO 205 colon
  TGI: 23.3 µM and 26.1 µM
DLD-1 colon
  TGI: > 100 µM
DU-145 prostate
  TGI: > 100 µM
EKVX NSCLC
  TGI: > 100 µM and 99.8 µM
HCC-2998 colon
  TGI: 23 µM and 30.8 µM
HCT-116 colon
  TGI: > 80.6 µM and 65.1 µM
HCT-15 colon
  GI50: 0.791 µM and 2.06 µM
  TGI: > 100 µM
HL-60(TB) leukemia
  GI50: 0.4 µM and 2.14 µM
HOP-18 NSCLC
  TGI: > 100 µM
HOP-62 NSCLC
  TGI: > 59.8 µM and 62.8 µM
HOP-92 NSCLC
  TGI: > 90.7 µM and 68.2 µM
HS 578T breast
  TGI: 93.1 µM and > 100 µM
HT29 colon
  GI50: 1.32 µM and 3.06 µM
  TGI: > 85.4 µM
IGROV1 ovarian
  GI50: 2.09 µM and 4.22 µM
  TGI: > 91.2 µM
K-562 leukemia
  TGI: > 54.8 µM
KM12 colon
  TGI: 73.1 µM and > 100 µM
KM20L2 colon
  TGI: > 100 µM
LOX IMVI melanoma
  TGI: > 100 µM and 67.7 µM
LXFL 529 NSCLC
  TGI: > 100 µM
M14 melanoma
  GI50: 0.641 µM and 3.51 µM
  TGI: 24.1 µM and 49 µM
M19-MEL melanoma
  TGI: > 100 µM
MALME-3M melanoma
  GI50: 14 µM and 6.3 µM
  TGI: 30.2 µM and 23.5 µM
MCF7 breast
  TGI: > 76.1 µM and 56.7 µM
MDA-MB-231 breast
  TGI: > 67.6 µM and 46.5 µM
MDA-MB-435
  TGI: 36.7 µM and > 83.7 µM
MDA-N
  GI50: 0.812 µM and 5.03 µM
  TGI: 53.9 µM and > 84.9 µM
MOLT-4 leukemia
  GI50: 2.82 µM and 6.62 µM
  TGI: 26.8 µM and 71.1 µM
NCI-H226 lung
  TGI: > 100 µM
NCI-H23 lung
  TGI: > 93.8 µM and 80.9 µM
NCI-H460 lung
  GI50: 0.463 µM and 1.23 µM
  TGI: > 81.7 µM
NCI-H522 lung
  TGI: 42.5 µM and 29.4 µM
NCI/ADR-RES ovarian
  TGI: 63.9 µM and 99.4 µM
OVCAR-3 ovarian
  TGI: 64.6 µM and 80 µM
OVCAR-4 ovarian
  TGI: 97.7 µM and > 100 µM
OVCAR-5 ovarian
  TGI: > 100 µM
OVCAR-8 ovarian
  GI50: 15.4 µM and 4.79 µM
  TGI: > 100 µM
PC-3 prostate
  GI50: 12.6 µM and 2.06 µM
  TGI: > 100 µM
RPMI-8226 leukemia
  TGI: 39.2 µM and 52.1 µM
RXF 393 renal
  GI50: 2.86 µM and 11.7 µM
  TGI: 42.3 µM and 73.6 µM
SF-268 CNS
  TGI: > 100 µM
SF-295 CNS
  TGI: > 100 µM and 82 µM
SF-539 CNS
  TGI: > 39.9 µM and 65.3 µM
SK-MEL-2 melanoma
  TGI: 41.3 µM and 43.7 µM
SK-MEL-28 melanoma
  TGI: > 87.7 µM and 60.5 µM
SK-MEL-5 melanoma
  TGI: 19.1 µM and 18.2 µM
SK-OV-3 ovarian
  TGI: > 100 µM
SN12C renal
  TGI: > 100 µM
SNB-19 CNS
  GI50: 5.09 µM and 19.5 µM
  TGI: > 100 µM
SNB-75 CNS
  TGI: > 87.3 µM
SNB-78 CNS
  TGI: > 100 µM
SR leukemia
  GI50: 1.3 µM and 2.68 µM
  TGI: 19.2 µM and 43.9 µM
SW-620 colon
  TGI: > 100 µM
T-47D breast
  TGI: > 96.2 µM
TK-10 renal
  GI50: 8.78 µM and 29.3 µM
  TGI: > 100 µM
U251 CNS
  TGI: > 100 µM
UACC-257 melanoma
  GI50: 1.58 µM and 12.9 µM
  TGI: 40 µM and > 92.7 µM
UACC-62 melanoma
  GI50: 0.78 µM and 3.13 µM
  TGI: 24.8 µM and 26.8 µM
UO-31 renal
  GI50: 5.8 µM and 14.6 µM
  TGI: 88 µM and > 100 µM
XF 498 CNS
  TGI: 88.1 µM

## CC(C)N(C(=O)C12C3C4C1C1C2C3C41C(N)=O)C(C)C (stereo unspecified)
786-0 renal
  TGI: > 100 µM
A498 renal
  TGI: > 100 µM
A549 NSCLC
  TGI: > 100 µM
ACHN renal
  TGI: > 100 µM
CAKI-1 renal
  TGI: > 100 µM
CCRF-CEM leukemia
  TGI: > 100 µM
COLO 205 colon
  TGI: > 100 µM
DMS 114 small cell lung
  TGI: > 100 µM
DMS 273 small cell lung
  TGI: > 100 µM
EKVX NSCLC
  TGI: > 100 µM
HCC-2998 colon
  TGI: > 100 µM
HCT-15 colon
  TGI: > 100 µM
HOP-62 NSCLC
  TGI: > 100 µM
HOP-92 NSCLC
  TGI: > 100 µM
IGROV1 ovarian
  TGI: > 100 µM
K-562 leukemia
  TGI: > 100 µM
KM20L2 colon
  TGI: > 100 µM
LXFL 529 NSCLC
  TGI: > 100 µM
M14 melanoma
  TGI: > 100 µM
M19-MEL melanoma
  TGI: > 100 µM
MALME-3M melanoma
  TGI: > 100 µM
MOLT-4 leukemia
  TGI: > 100 µM
NCI-H522 lung
  TGI: > 100 µM
OVCAR-3 ovarian
  TGI: > 100 µM
OVCAR-8 ovarian
  TGI: > 100 µM
RXF-631 renal
  TGI: > 100 µM
SF-268 CNS
  TGI: > 100 µM
SF-295 CNS
  TGI: > 100 µM
SF-539 CNS
  TGI: > 100 µM
SK-MEL-5 melanoma
  TGI: > 100 µM
SK-OV-3 ovarian
  TGI: > 100 µM
SN12C renal
  TGI: > 100 µM
SNB-19 CNS
  TGI: > 100 µM
SNB-78 CNS
  TGI: > 100 µM
SR leukemia
  TGI: > 100 µM
SW-620 colon
  TGI: > 100 µM
U251 CNS
  TGI: > 100 µM
UO-31 renal
  TGI: > 100 µM

## NC(=S)N1N=C2c3ccccc3CC[C@H]2[C@@H]1c1ccc(Cl)cc1
786-0 renal
  TGI: > 100 µM
A498 renal
  TGI: > 100 µM
A549 NSCLC
  TGI: > 100 µM
ACHN renal
  TGI: > 100 µM
CCRF-CEM leukemia
  TGI: > 100 µM
COLO 205 colon
  TGI: 34.8 µM
DLD-1 colon
  TGI: > 100 µM
DMS 114 small cell lung
  TGI: 70.6 µM
DMS 273 small cell lung
  TGI: 73.3 µM
EKVX NSCLC
  TGI: > 100 µM
HCC-2998 colon
  TGI: > 100 µM
HCT-116 colon
  TGI: 37.3 µM
HCT-15 colon
  TGI: > 100 µM
HL-60(TB) leukemia
  TGI: 61.6 µM
HOP-18 NSCLC
  TGI: > 100 µM
HOP-62 NSCLC
  TGI: > 100 µM
HOP-92 NSCLC
  TGI: 58.2 µM
HT29 colon
  TGI: > 100 µM
IGROV1 ovarian
  TGI: > 100 µM
K-562 leukemia
  TGI: 82.5 µM
KM12 colon
  TGI: > 100 µM
KM20L2 colon
  TGI: > 100 µM
LOX IMVI melanoma
  TGI: > 100 µM
LXFL 529 NSCLC
  TGI: > 100 µM
M14 melanoma
  TGI: > 100 µM
M19-MEL melanoma
  TGI: > 100 µM
MALME-3M melanoma
  TGI: 52.6 µM
MOLT-4 leukemia
  TGI: 89.8 µM
NCI-H226 lung
  TGI: 51.5 µM
NCI-H23 lung
  TGI: 97.7 µM
NCI-H460 lung
  TGI: > 100 µM
NCI-H522 lung
  TGI: 35.4 µM
OVCAR-3 ovarian
  TGI: > 100 µM
OVCAR-4 ovarian
  TGI: > 100 µM
OVCAR-5 ovarian
  TGI: > 100 µM
OVCAR-8 ovarian
  TGI: > 100 µM
RPMI-8226 leukemia
  TGI: > 100 µM
RXF 393 renal
  TGI: 84.3 µM
SF-268 CNS
  TGI: > 100 µM
SF-295 CNS
  TGI: > 100 µM
SF-539 CNS
  TGI: > 100 µM
SK-MEL-2 melanoma
  TGI: 61.1 µM
SK-MEL-28 melanoma
  TGI: > 100 µM
SK-OV-3 ovarian
  TGI: > 100 µM
SN12C renal
  TGI: > 100 µM
SNB-19 CNS
  TGI: > 100 µM
SNB-78 CNS
  TGI: > 100 µM
SR leukemia
  TGI: > 100 µM
SW-620 colon
  TGI: > 100 µM
TK-10 renal
  TGI: > 100 µM
U251 CNS
  TGI: > 100 µM
UACC-257 melanoma
  TGI: 95 µM
UACC-62 melanoma
  TGI: > 100 µM
UO-31 renal
  TGI: 66.8 µM
XF 498 CNS
  TGI: 60.6 µM
